According to patent publication US20220047698A1, “SYNTHETIC INNATE IMMUNE RECEPTOR LIGANDS AND USES THEREOF” (ALBERTA RESEARCH CHEMICALS INC., priority 2018, published 2022):

Test system: BALB/c mice
Experiment: Mouse immunization with OVA plus adjuvant combinations, serum IgG1 / IgG2a
Assay type: in vivo
Settings: mice vaccinated with OVA and adjuvant combinations, subcutaneous, booster Day 21; for serum IgG1: FIG. 2; for serum IgG2a: FIG. 3
Method: Ability of compounds as vaccine adjuvants are assessed through their ability to induce robust immune responses in mice when administered along with a standard experimental antigen, OVA peptide, and compared the balance of Th1 and Th2 responses from their IgG1a and IgG2a responses as well as the cytokine production in mice. It is very common to see the antibody responses to many adjuvants but it is important to see the cellular responses as well which are used as therapeutic vaccines such as cancer vaccines.
Mouse Immunization: Groups of BALB/c mice were immunized with vaccine formulations wherein OVA (50 μg/dose) is combined with PZ (10 μg/dose), PIC (10 μg/dose), and adjuvant alone or in combination (20 μg/dose). In Trial 1, mice (n=8 per group) were immunized subcutaneously with 100 μl total volume with OVA alone, OVA+PZ/PI/52, OVA+52, or saline. In Trial 2, mice (n=8 per group) were immunized subcutaneously with 200 μl total volume with OVA alone, OVA+52, OVA+PZ+PIC, OVA+52+PZ+PI, OVA+(63+97) nanoparticles, or OVA+(52+63+97)nanoparticles, where the number refers to the compound number. The volume was doubled in Trial 2 because the (63+97)Np's were viscous and required more buffer to be easily injected. Mice received a booster immunization on Day 21. Blood was obtained on day 21, day 35 for both trials and 48 for trial 1 only. Mice were euthanized with isofluorane on Day 35 in Trial 2 and Day 48 in Trial 1. Spleens were isolated on day of euthanization.

Row | Compound | serum IgG1 | serum IgG2a
1 | CSCC[C@H](NC=O)C(=O)N[C@@H](CC(C)C)C(=O)N[C@@H](Cc1ccccc1)C(=O)NCCNC(=O)[C@H](CCCCN)NC(=O)[C@H](CCCCN)NC(=O)[C@H](CCCCN)NC(=O)[C@H](CO)NC(=O)[C@H](CSCC(COC(=O)CCCCCCCCCCCC(C)C)OC(=O)CCCCCCCCCCCC(C)C)NC(=O)CCCCCCCCCCCC(C)C.Cl.Cl.Cl (stereo partly drawn) [Compound 52, TrilipoCys-Ser-Lys-Lys-Lys-NH—CH2-CH2-NH-F-L-Mf] | significant increased production | significant increased production
2 | CC(=O)N[C@@H]1[C@@H](O[C@H](C)C(=O)N[C@@H](C)C(=O)N[C@@H](CCC(=O)O)C(N)=O)[C@H](O)[C@@H](COC(=O)CCCCCCCCCCCC(C)C)O[C@H]1O [Compound 63, (S)-4-((S)-2-((R)-2-(((2R,3R,4R,5S,6R)-3-acetamido-2,5-dihydroxy-6-(((13-methyltetradecanoyl)oxy)methyl)tetrahydro-2H-pyran-4-yl)oxy)propanamido)propanamido)-5-amino-5-oxopentanoic acid] | significant increased production | significant increased production
